Data taken from patent US4839366A, “Methylthioquinolyl guanidine derivative, process of preparation thereof and pharmaceutical compositions therefrom” (Chiesi Farmaceutici S.p.A., priority 1983, dated 1989).
Read-outs that look alike come from different tables or passages of the source.

Key:
[1] = Determination of the therapeutical index (UD50/ED40); assay type: in vivo, rat; conditions: gastric ulcers UD50 / paw edema ED40
Method: From the UD50 /ED40 ratio (antiinflammatory activity values obtained from the regression lines for dose--AUC) the therapeutic index were calculated (Table 5).

[2] = Acute toxicity, single oral administration; conditions: mouse, in vivo, read-out: LD50 approx
Method: The toxicity for single administration has been determined by the oral route in IVa:NMRI (SPF) fasted male mice, with water ad libitum, 18 hours before the experiment.

[3] = test system: Carrageenin-induced paw edema in the rat; test: Carrageenin paw edema in the rat; assay type: in vivo; conditions: for % inhibition vs controls, AUC (paw edema): AUC of paw volume against time
Method: Paw edema was induced in male rats fasted for 18 h but with free access to water, by the method of WINTER et al. (Winter C. A. et al. Proc. Soc. Exp. Biol. Med. 111, 544, 1962) injecting 0.1 ml carrageenin 1% in physiological saline into the right hind paw aponeurosis.
60 min before induction of edema the drugs suspended in 0.2% Tween
80 aqueous solution were dosed by gastric tube (20 ml/Kg); the controls received the vehicle only.
The volume of the right paw was measured by plethysmography immediately before (time 0) and 1, 2, 3, 4, 6 h after subplantar injection of the irritant.
The area under the curve expressing the paw volume plotted against time (AUC) was calculated for each animal.
The results, expressed as percent inhibition of edema development in treated animals as compared to the controls and as ED40 values obtained from the regression lines for dose-AUC, are reported in Table 2.

[4] = test system: gastric ulcers in the rat; test: Acute effect on gastrointestinal tract: gastric ulcers in the rat; assay type: in vivo; conditions: for Potency ratio relative to timegadine: gastric ulcers, UD50; for Gastric ulcers (X ± SE), No. / Gastric ulcers (X ± SE), mm / Rats with gastric ulcers: oral; for Gastric ulcers (X ± SE), No.: number of ulcerated spots; for Gastric ulcers (X ± SE), mm: sum of maximum diameters; for Rats with gastric ulcers: ulceration 2 mm and over
Method: (§1) Male rats weithing 250-280 g were starved for 18 h but allowed free access to water and the drugs were delivered by esophageal tube (suspension in 0.2% Tween 80 aqueous solution, 10 ml/Kg).
(§2) Control animals received the vehicle only (10 ml/Kg).
(§3) Five hours after drug administration the rats were killed.
(§4) The stomach was slit along the lesser curvature, washed under running water and examined for haemorrhagic lesions in the glandular part of the mucosa: these lesions will be conventionally defined as `ulcers`.
(§5) The following were recorded:
(§6) (a) the sum of the maximum diameters of all the ulcerated spots;
(§7) (b) the number of ulcerated spots.
(§8) The UD50 was calculated by the method of LITCHFIELD and WILCOXON (Litchfield J. T., Wilcoxon F. J. Pharm. Exp. Ther. 96, 99-113, 1949), all animals with gastric lesion whose sum (a) was 2 mm or more being rated as `ulcerated`.

[5] = as above; assay type: in vivo; conditions: rat, in vivo, po
Method: as §1, §2, §3, §4, §5, §6, §7, §8

[6] = test system: phenylquinone writhings in the mouse; test: Phenylquinone writhings in the mouse; assay type: in vivo; conditions: for ED50: Mus musculus, from dose-response curves; for ED50 / % inhibition vs controls (writhings) / No. of writhings (X ± SE): oral
Method: The method used was that of SIEGMUND et al. (Siegmund et al. J. Pharmacol. Exp. Ther. 119, 184, 1957) modified (Arzneim. Forsch. 31(1), 87, 1981).
Male mice, 19-22 g, fasted for 18 h with free access to water, received the test drugs suspended in 0.2% Tween 80 aqueous solution (10 ml/Kg) by esophageal tube, the controls receiving the vehicle only.
One hour later all the animals were given an intraperitoneal injection of 0.02% phenylquinone solution in 5% aqueous ethanol (10 ml/Kg).
A `blind` observer recorded the number of writhings in each animal from the 5th to the 15th min after phenylquinone administration.

[7] = Rattus norvegicus, oral, from regression lines for dose-AUC (Table 2), read-out: ED40
[8] = restated in Table 5, from regression lines for dose-AUC

## Cc1cc(/N=C(\Nc2nccs2)NC2CCCCC2)c2ccccc2n1 [timegadine, N-cyclohexyl-N"-4-(2-methylquinolyl)-N'-2-thiazolyl guanidine, reference compound]
[1]
  T.I. (UD50/ED40): 2.83
[2]; oral, single administration, male mice, interpolation on Probits paper
  LD50: > 1000 mg/kg
[3]; [7]
  ED40: 147 µmol/kg
[3]; oral, 30 μmol/kg
  % inhibition vs controls (paw edema), 1 h: 17%
  % inhibition vs controls (paw edema), 2 h: 18%
  % inhibition vs controls (paw edema), 3 h: 11%
  % inhibition vs controls (paw edema), 4 h: 15%
  % inhibition vs controls (paw edema), 6 h: 4%
  % inhibition vs controls, AUC (paw edema): 12.3%
[3]; oral, 91 μmol/kg
  % inhibition vs controls (paw edema), 1 h: 38%
  % inhibition vs controls (paw edema), 2 h: 51%
  % inhibition vs controls (paw edema), 3 h: 30%
  % inhibition vs controls (paw edema), 4 h: 27%
  % inhibition vs controls (paw edema), 6 h: 9%
  % inhibition vs controls, AUC (paw edema): 28.4%
[3]; oral, 274 μmol/kg
  % inhibition vs controls (paw edema), 1 h: 33%
  % inhibition vs controls (paw edema), 2 h: 55%
  % inhibition vs controls (paw edema), 3 h: 58%
  % inhibition vs controls (paw edema), 4 h: 57%
  % inhibition vs controls (paw edema), 6 h: 44%
  % inhibition vs controls, AUC (paw edema): 52.9%
[3]; [8]
  ED40: 147 µmol/kg
[4]
  Potency ratio relative to timegadine: 1
[4]; 115 μmol/Kg
  Gastric ulcers (X ± SE), No.: 0.3 ± 0.2
  Gastric ulcers (X ± SE), mm: 0.4 ± 0.2 mm
  Rats with gastric ulcers: 0/10
[4]; 230 μmol/Kg
  Gastric ulcers (X ± SE), No.: 0.8 ± 0.3
  Gastric ulcers (X ± SE), mm: 1.3 ± 0.7 mm
  Rats with gastric ulcers: 2/10
[4]; 461 μmol/Kg
  Gastric ulcers (X ± SE), No.: 4.4 ± 1.5
  Gastric ulcers (X ± SE), mm: 6.7 ± 2.3 mm
  Rats with gastric ulcers: 6/10
[4]; 922 μmol/Kg
  Gastric ulcers (X ± SE), No.: 9.4 ± 1.8
  Gastric ulcers (X ± SE), mm: 18.5 ± 4.4 mm
  Rats with gastric ulcers: 9/10
[5]
  TD50 at 5 h: 413 µmol/kg
[6]
  ED50: 58.9 µmol/kg
[6]; 18.3 μmol/Kg
  % inhibition vs controls (writhings): 26.1%
  No. of writhings (X ± SE): 27.2 ± 4.1
[6]; 55 μmol/Kg
  % inhibition vs controls (writhings): 36.4%
  No. of writhings (X ± SE): 23.4 ± 4.6
[6]; 164 μmol/Kg
  % inhibition vs controls (writhings): 82.1%
  No. of writhings (X ± SE): 6.6 ± 2.9

## CSc1cc(NC(=Nc2nccs2)NC2CCCCC2)c2ccccc2n1 [Compound I, N-cyclohexyl-N"-4-(2-methylthioquinolyl)-N'-2-thiazolyl-guanidine]
[1]
  T.I. (UD50/ED40): 7.99
[2]; po
  LD50: > 1000 mg/kg
[3]; [7]
  ED40: 111 µmol/kg
[3]; carrageenin paw edema, ED40 (Table 2)
  Potency ratio relative to timegadine: 1.32
[3]; in words
  antiinflammatory activity compared with timegadine: higher than those of timegadine
[3]; oral, 30 μmol/kg
  % inhibition vs controls (paw edema), 1 h: 4%
  % inhibition vs controls (paw edema), 2 h: 47%
  % inhibition vs controls (paw edema), 3 h: 40%
  % inhibition vs controls (paw edema), 4 h: 28%
  % inhibition vs controls (paw edema), 6 h: 8%
  % inhibition vs controls, AUC (paw edema): 27.9%
[3]; oral, 91 μmol/kg
  % inhibition vs controls (paw edema), 1 h: 13%
  % inhibition vs controls (paw edema), 2 h: 51%
  % inhibition vs controls (paw edema), 3 h: 48%
  % inhibition vs controls (paw edema), 4 h: 42%
  % inhibition vs controls (paw edema), 6 h: 17%
  % inhibition vs controls, AUC (paw edema): 37.3%
[3]; oral, 274 μmol/kg
  % inhibition vs controls (paw edema), 1 h: 17%
  % inhibition vs controls (paw edema), 2 h: 53%
  % inhibition vs controls (paw edema), 3 h: 58%
  % inhibition vs controls (paw edema), 4 h: 56%
  % inhibition vs controls (paw edema), 6 h: 33%
  % inhibition vs controls, AUC (paw edema): 49.0%
[3]; [8]
  ED40: 111 µmol/kg
[4]
  Potency ratio relative to timegadine: 0.47
[4]; in words
  gastric irritant potential compared with timegadine: lesser gastric irritant potential
[4]; 115 μmol/Kg
  Gastric ulcers (X ± SE), No.: 0.5 ± 0.3
  Gastric ulcers (X ± SE), mm: 0.5 ± 0.3 mm
  Rats with gastric ulcers: 1/10
[4]; 230 μmol/Kg
  Gastric ulcers (X ± SE), No.: 0.6 ± 0.3
  Gastric ulcers (X ± SE), mm: 1.2 ± 0.8 mm
  Rats with gastric ulcers: 1/10
[4]; 461 μmol/Kg
  Gastric ulcers (X ± SE), No.: 2.1 ± 1.0
  Gastric ulcers (X ± SE), mm: 3.8 ± 1.8 mm
  Rats with gastric ulcers: 4/10
[4]; 922 μmol/Kg
  Gastric ulcers (X ± SE), No.: 4.8 ± 1.5
  Gastric ulcers (X ± SE), mm: 8.7 ± 3.5 mm
  Rats with gastric ulcers: 5/10
[5]
  TD50 at 5 h: 887 µmol/kg
[6]
  ED50: 18.7 µmol/kg
[6]; in words
  analgesic activity compared with timegadine: higher than those of timegadine
[6]; 18.3 μmol/Kg
  % inhibition vs controls (writhings): 47.0%
  No. of writhings (X ± SE): 19.5 ± 4.8
[6]; 55 μmol/Kg
  % inhibition vs controls (writhings): 79.3%
  No. of writhings (X ± SE): 7.6 ± 2.4
[6]; 164 μmol/Kg
  % inhibition vs controls (writhings): 96.5%
  No. of writhings (X ± SE): 1.3 ± 0.5
[6]; phenylquinone writhings, ED50
  Potency ratio relative to timegadine: 3.1
